Measurements reported in PubChem BioAssay AID1963861 (Molecular Pharmacology Branch, DTP, NCI, 2024).

System: 885724-159-R-J1-PDC KRAS PDC multicell spheroid viability
Assay: Anticancer human tumor 885724-159-R-J1-PDC patient-derived pancreatic adenocarcinoma cell line growth inhibition [KRAS2]
Conditions: for IC50: curve of first compound; for viability, T/C: stronger effect = lower value
How it was run: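 Combination screen of spheroid viability in tumor-cell co-cultures with endothelial (HUVEC) and mesenchymal stem cell stroma. Each agent was tested in half-log dilutions, topping at clinical Cmax or at 10 microM without a known Cmax.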
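Note: spheroids exposed to agents for 7 days before readout.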

SMILES: CC(=O)Nc1cccc(-n2c(=O)n(C3CC3)c(=O)c3c(Nc4ccc(I)cc4F)n(C)c(=O)c(C)c32)c1 + COc1cc2nc(C)nc(NC(C)c3cc(N)cc(C(F)(F)F)c3)c2cc1OC1CCOC1
- IC50 (second compound 0.1 µM): 0.985 nM
- IC50 (second compound 0.316 µM): 0.909 nM
- IC50 (second compound 1 µM): 0.845 nM
- IC50 (second compound 3.16 µM): 0.706 nM
- IC50 (second compound 10 µM): < 0.1 nM
- viability, T/C (second compound 0.1 µM, first compound 0.0001 µM): 91%
- viability, T/C (second compound 0.1 µM, first compound 0.000316 µM): 73%
- viability, T/C (second compound 0.1 µM, first compound 0.001 µM): 48.1%
- viability, T/C (second compound 0.1 µM, first compound 0.00316 µM): 32.7%
- viability, T/C (second compound 0.1 µM, first compound 0.01 µM): 26.2%
- viability, T/C (second compound 0.1 µM, first compound 0.0316 µM): 17%
- viability, T/C (second compound 0.316 µM, first compound 0.0001 µM): 87.2%
- viability, T/C (second compound 0.316 µM, first compound 0.000316 µM): 68.9%
- viability, T/C (second compound 0.316 µM, first compound 0.001 µM): 46.4%
- viability, T/C (second compound 0.316 µM, first compound 0.00316 µM): 34.3%
- viability, T/C (second compound 0.316 µM, first compound 0.01 µM): 24.9%
- viability, T/C (second compound 0.316 µM, first compound 0.0316 µM): 17.3%
- viability, T/C (second compound 1 µM, first compound 0.0001 µM): 89.8%
- viability, T/C (second compound 1 µM, first compound 0.000316 µM): 68.4%
- viability, T/C (second compound 1 µM, first compound 0.001 µM): 46.1%
- viability, T/C (second compound 1 µM, first compound 0.00316 µM): 31.6%
- viability, T/C (second compound 1 µM, first compound 0.01 µM): 24.6%
- viability, T/C (second compound 1 µM, first compound 0.0316 µM): 17.1%
- viability, T/C (second compound 3.16 µM, first compound 0.0001 µM): 74.9%
- viability, T/C (second compound 3.16 µM, first compound 0.000316 µM): 62.8%
- viability, T/C (second compound 3.16 µM, first compound 0.001 µM): 44.4%
- viability, T/C (second compound 3.16 µM, first compound 0.00316 µM): 27.6%
- viability, T/C (second compound 3.16 µM, first compound 0.01 µM): 19.1%
- viability, T/C (second compound 3.16 µM, first compound 0.0316 µM): 10.7%
- viability, T/C (second compound 10 µM, first compound 0.0001 µM): 34.8%
- viability, T/C (second compound 10 µM, first compound 0.000316 µM): 18.5%
- viability, T/C (second compound 10 µM, first compound 0.001 µM): 3.24%
- viability, T/C (second compound 10 µM, first compound 0.00316 µM): 0.51%
- viability, T/C (second compound 10 µM, first compound 0.01 µM): 0.67%
- viability, T/C (second compound 10 µM, first compound 0.0316 µM): 0.32%
